The source of these data is patent US20090306015A1, “PHARMACEUTICAL COMPOSITIONS AND METHODS OF USE OF HIGHLY LIPOPHILIC SULFHYDRYL COMPOUNDS” (Silamed, Inc., priority 2005, published 2009).

Usually IC50 stands for the concentration that gives 50% inhibition.

Format in all cases: cell-based
In assay [1] the test system is human MD-MBA-231 breast cancer cells. As to the kind of experiment: CellTiter-Blue cell viability, monotherapy. The procedure: (§1) CellTiter-Blue® Reagent Method: Following incubation with test compounds for 72 or 96 hours, human MD-MBA-231 breast cancer cells were briefly washed, […] stained with the CellTiter-Blue® Reagent resazurin. Resazurin measures the metabolic capacity of cells, an indicator of cell viability. Viable cells retain the ability to reduce resazurin into resorufin, that is highly fluorescent. […] This test measures the degree of cytotoxicity caused by the test material. IC50 determination: Data are expressed as the percentage of survival of the untreated (vehicle) control calculated from the fluorescence corrected for background absorbance. The surviving fraction of cells were determined by dividing the mean fluorescence values of the test agents by the mean fluorescence values of untreated control. The inhibitory concentration value for the test agent(s) and control were estimated using Prism 4 software (GraphPad Software, Inc.) by curve-fitting the data using the non-linear regression analysis. In some instances IC50 values could not be extrapolated and these are marked (*).

Assay [2] has the same test system. As to the kind of experiment: CellTiter-Blue cell viability, 6-hour pretreatment before doxorubicin administration. The settings on record: for 72 Hours IC10 Doxorubicin / 96 Hours IC10 Doxorubicin: 6-hour pretreatment with compound before IC10 doxorubicin; for 72 Hours IC30 Doxorubicin / 96 Hours IC30 Doxorubicin: 6-hour pretreatment with compound before IC30 doxorubicin. Here is the method:
as §1, with “(*). Compounds of the invention were tested as monotherapy and results presented in TABLE 1 Compounds of the invention were tested in combination with inhibitory concentration 30% and 10% (IC30/IC10) of Adriamycin (doxorubicin) following 6 hours of pretreatment with example compounds and results presented in TABLE 3” for “(*).”
A general note: The colour change of resazurin is a common sign of viable cells or microbes.

For assay [3] the test system is unchanged. As to the kind of experiment: CellTiter-Blue cell viability, concurrent combination treatment with doxorubicin. The conditions noted are these: for 72 Hours IC10 Doxorubicin / 96 Hours IC10 Doxorubicin: concurrent combination with IC10 of Adriamycin (doxorubicin); for 72 Hours IC30 Doxorubicin / 96 Hours IC30 Doxorubicin: concurrent combination with IC30 of Adriamycin (doxorubicin). Here is the method:
as §1, with “(*). Compounds of the invention were tested as monotherapy and results presented in TABLE 1 Compounds of the invention were tested in combination with inhibitory concentration 30% and 10% (IC30/IC10) of Adriamycin (doxorubicin) and results presented in TABLE 2” for “(*).”

[4] abbreviates: 72 hours incubation, read-out: 72 Hours Treatment IC50.
Setting [5] is: 96 hours incubation, read-out: 96 Hours Treatment IC50.

Structures are written as SMILES. Like-named read-outs stand apart in the source and are kept apart here.

For the compound `CC(=O)N[C@@H](CS)C(=O)NC[Si](C)(C)c1ccccc1` [Example 3, (R)-2-acetamido-N-((dimethyl(phenyl)silyl)methyl)-3-mercaptopropanamide], the IC50 in assay [1] (setting [4]) was found to be 28.1 µM. In addition, the IC50 in assay [1] (setting [5]) turned out to be 24.3 µM. For the same compound, in assay [2], the “72 Hours IC10 Doxorubicin” value came to 35.69 µM, the “96 Hours IC10 Doxorubicin” value is 37.88 µM, the “72 Hours IC30 Doxorubicin” value amounted to 11.21 µM and the “96 Hours IC30 Doxorubicin” value was 3.799 µM. Moreover, in assay [3], the “72 Hours IC10 Doxorubicin” value stood at 8.553 µM, the “96 Hours IC10 Doxorubicin” value was found to be 9.479 µM, the “72 Hours IC30 Doxorubicin” value came out at 39.29 µM and the “96 Hours IC30 Doxorubicin” value was found to be 30.63 µM.
`CC(=O)N[C@@H](CS)C(=O)NC[Si](C)(C)C` [Example 2, (R)-2-acetamido-3-mercapto-N-((trimethylsilyl)methyl)propanamide]: the IC50 in assay [1] (setting [4]) turned out to be 132 µM. The IC50 in assay [1] (setting [5]) amounted to 136 µM. Further, in assay [2], the “72 Hours IC10 Doxorubicin” value was 210.70 µM, the “72 Hours IC30 Doxorubicin” value amounted to 56.64 µM and the “96 Hours IC30 Doxorubicin” value came out at 14.68 µM. Further, in assay [3], the “72 Hours IC10 Doxorubicin” value came out at 49.42 µM, the “96 Hours IC10 Doxorubicin” value is 34.55 µM and the “72 Hours IC30 Doxorubicin” value was found to be 269.0 µM.
For the compound `CC(=O)N[C@@H](CS)C(=O)NCCC[Si](C)(C)C` [Eample 1, (R)-2-acetamido-3-mercapto-N-(3-(trimethylsilyl)propyl)propanamide], the IC50 in assay [1] (setting [4]) is 21.6 µM. The IC50 in assay [1] (setting [5]) turned out to be 18.8 µM. Also, in assay [2], the “72 Hours IC10 Doxorubicin” value stood at 27.13 µM, the “96 Hours IC10 Doxorubicin” value worked out at 34.20 µM, the “72 Hours IC30 Doxorubicin” value amounted to 10.04 µM and the “96 Hours IC30 Doxorubicin” value was 2.162 µM. In assay [3], the “72 Hours IC10 Doxorubicin” value was 7.49 µM, the “96 Hours IC10 Doxorubicin” value worked out at 6.703 µM, the “72 Hours IC30 Doxorubicin” value amounted to 29.67 µM and the “96 Hours IC30 Doxorubicin” value is 26.70 µM.
`CC(=O)N[C@@H](CS)C(=O)O` [N-Acetyl-L-Cysteine, reference compound]: the IC50 in assay [1] (setting [4]) is 277 µM. In assay [2], the “72 Hours IC10 Doxorubicin” value worked out at 499.10 µM and the “96 Hours IC10 Doxorubicin” value came to 454.10 µM. Also, in assay [3], the “72 Hours IC10 Doxorubicin” value is 129.70 µM, the “72 Hours IC30 Doxorubicin” value turned out to be 639.30 µM and the “96 Hours IC30 Doxorubicin” value came out at 925.2 µM.
